Results published in US8299077B2 (Roche Palo Alto LLC, priority 2009, dated 2012).

What follows are compounds tested on B cell receptor-mediated activation of B cells in human blood (CD69 expression) (assay: Inhibition of B cell activation in whole blood measured by CD69 expression). Conditions: anti-IgM stimulation, 20 h, 50% decrease of CD69-positive cells that are also CD20-positive.
Assay type: cell-based
Method: Inhibition of B Cell Activation in Whole Blood Measured by CD69 Expression
A procedure to test the ability of Btk inhibitors to suppress B cell receptor-mediated activation of B cells in human blood is as follows:
Human whole blood (HWB) is obtained from healthy volunteers, with the following restrictions: 24 hr drug-free, non-smokers. Blood is collected by venipuncture into Vacutainer tubes anticoagulated with sodium heparin. Test compounds are diluted to ten times the desired starting drug concentration in PBS (20×), followed by three-fold serial dilutions in 10% DMSO in PBS to produce a nine point dose-response curve. 5.5 μl of each compound dilution is added in duplicate to a 2 ml 96-well V bottom plate (Analytical Sales and Services, #59623-23); 5.5 μl of 10% DMSO in PBS is added to control and no-stimulus wells. HWB (100 μl) is added to each well, and after mixing the plates are incubated at 37 C, 5% CO2, 100% humidity for 30 minutes. Goat F(ab′)2 anti-human IgM (Southern Biotech, #2022-14) (10 μl of a 500 μg/ml solution, 50 μg/ml final concentration) is added to each well (except the no-stimulus wells) with mixing and the plates are incubated for an additional 20 hours.
At the end of the 20 hour incubation, samples are incubated with florescent-probe-labeled anti-bodies (15 μl PE Mouse anti-Human CD20, BD Pharmingen, #555623, and/or 20 ul APC Mouse anti-Human CD69, BD Pharmingen #555533) for 30 minutes, at 37 C, 5% CO2, 100% humidity. Included are induced control, unstained and single stains for compensation adjustments and initial voltage settings. Samples are then lysed with 1 ml of 1× Pharmingen Lyse Buffer (BD Pharmingen #555899), and plates are centrifuged at 1800 rpm for 5 minutes. Supernatants are removed via suction and the remaining pellets are lysed again with another 1 ml of 1× Pharmingen Lyse Buffer, and plates are spun down as before. Supernatants are aspirated and remaining pellets are washed in FACs buffer (PBS+1% FBS). After a final spin, the supernantants are removed and pellets are resuspended in 180 μl of FACs buffer. Samples are transferred to a 96 well plate suitable to be run on the HTS 96 well system on the BD LSR II flow cytometer.
Using appropriate excitation and emission wavelengths for the fluorophores used, data are acquired and percent positive cell values are obtained using Cell Quest Software. Results are initially analyzed by FACS analysis software (Flow Jo). […] The IC50 values are calculated using XLfit software version 3, equation 201.

| IC50 [nM] | SMILES |
| --- | --- |
| 22 | CN(C)C(=O)C(C)(C)c1ccc(Nc2cc(-c3cccc(-n4ccc5cc(C6CC6)cc(F)c5c4=O)c3CO)cn(C)c2=O)nc1 [Example I-70, 2-(6-{5-[3-(6-Cyclopropyl-8-fluoro-1-oxo-1H-isoquinolin-2-yl)-2-hydroxymethyl-phenyl]-1-methyl-2-oxo-1,2-dihydro-pyridin-3-ylamino}-pyridin-3-yl)-N,N-dimethyl-isobutyramide] |
| 30 | CCOCCNC(=O)C(C)(C)c1ccc(Nc2cc(-c3cccc(-n4ncc5cc(C(C)(C)C)cc(F)c5c4=O)c3CO)cn(C)c2=O)nc1 [Example I-29, 2-(6-{5-[3-(6-tert-Butyl-8-fluoro-1-oxo-1H-phthalazin-2-yl)-2-hydroxymethyl-phenyl]-1-methyl-2-oxo-1,2-dihydro-pyridin-3-ylamino}-pyridin-3-yl)-N-(2-ethoxy-ethyl)-isobutyramide] |
| 39 | CN1CC(Oc2ccc(Nc3cc(-c4cccc(-n5ccc6cc(C7CC7)cc(F)c6c5=O)c4CO)cn(C)c3=O)nc2)C1 [Example I-71, 6-Cyclopropyl-8-fluoro-2-(2-hydroxymethyl-3-{1-methyl-5-[5-(1-methyl-azetidin-3-yloxy)-pyridin-2-ylamino]-6-oxo-1,6-dihydro-pyridin-3-yl}-phenyl)-2H-isoquinolin-1-one] |
| 41 | Cn1cc(-c2cccc(-n3ncc4cc(C(C)(C)C)cc(F)c4c3=O)c2CO)cc(Nc2ccc(C(C)(C)C(=O)O)cn2)c1=O [Example I-20, 2-(6-{5-[3-(6-tert-Butyl-8-fluoro-1-oxo-1H-phthalazin-2-yl)-2-hydroxymethyl-phenyl]-1-methyl-2-oxo-1,2-dihydro-pyridin-3-ylamino}-pyridin-3-yl)-2-methyl-propionic acid] |
| 12 | CN1CCN(C)C(c2ccc(Nc3nc(-c4cccc(-n5ncc6cc(C(C)(C)C)cc(F)c6c5=O)c4CO)cn(C)c3=O)cc2)C1=O (centres unmarked) [Example I-89, 6-tert-Butyl-2-(3-{6-[4-(1,4-dimethyl-3-oxo-piperazin-2-yl)-phenylamino]-4-methyl-5-oxo-4,5-dihydro-pyrazin-2-yl}-2-hydroxymethyl-phenyl)-8-fluoro-2H-phthalazin-1-one] |
| 10 | CC(O)Cn1cc(Nc2nc(-c3cccc(-n4ncc5cc(C(C)(C)C)cc(F)c5c4=O)c3CO)cn(C)c2=O)cn1 (centres unmarked) [Example I-83, 6-tert-Butyl-8-fluoro-2-(2-hydroxymethyl-3-{6-[1-(2-hydroxy-propyl)-1H-pyrazol-4-ylamino]-4-methyl-5-oxo-4,5-dihydro-pyrazin-2-yl}-phenyl)-2H-phthalazin-1-one] |
| 10 | CN1CC(Oc2ccc(Nc3cc(-c4cccc(-n5ncc6cc(C(C)(C)C)cc(F)c6c5=O)c4CO)cn(C)c3=O)nc2)C1 [Example I-30, 6-tert-Butyl-8-fluoro-2-(2-hydroxymethyl-3-{1-methyl-5-[5-(1-methyl-azetidin-3-yloxy)-pyridin-2-ylamino]-6-oxo-1,6-dihydro-pyridin-3-yl}-phenyl)-2H-phthalazin-1-one] |
| 48 | Cn1cc(-c2cccc(-n3ncc4cc(C(C)(C)C)cc(F)c4c3=O)c2CO)cc(Nc2ccc(C3CCNCC3)cn2)c1=O [Example I-16, 6-tert-Butyl-8-fluoro-2-{3-[5-(1′,2′,3′,4′,5′,6′-hexahydro-[3,4′]bipyridinyl-6-ylamino)-1-methyl-6-oxo-1,6-dihydro-pyridin-3-yl]-2-hydroxymethyl-phenyl}-2H-phthalazin-1-one] |
| 213 | Cn1cc(-c2cccc(-n3ccc4cc(C5CC5)cc(F)c4c3=O)c2CO)cc(Nc2ccc(C(C)(C)C(=O)O)cn2)c1=O [Example I-68, 2-(6-{5-[3-(6-Cyclopropyl-8-fluoro-1-oxo-1H-isoquinolin-2-yl)-2-hydroxymethyl-phenyl]-1-methyl-2-oxo-1,2-dihydro-pyridin-3-ylamino}-pyridin-3-yl)-2-methyl-propionic acid] |
| 3 | CN1CCN(c2ccc(Nc3cc(-c4cccc(-n5ccc6cc(C(C)(C)O)cc(F)c6c5=O)c4CO)cn(C)c3=O)nc2)CC1 [Example I-59, 8-Fluoro-6-(1-hydroxy-1-methyl-ethyl)-2-(2-hydroxymethyl-3-{1-methyl-5-[5-(4-methyl-piperazin-1-yl)-pyridin-2-ylamino]-6-oxo-1,6-dihydro-pyridin-3-yl}-phenyl)-2H-isoquinolin-1-one] |
| 57 | Cn1cc(-c2cccc(-n3ccc4cc(C5CC5)cc(F)c4c3=O)c2CO)cc(Nc2ccc(N3CCNCC3)cn2)c1=O [Example I-52, 6-Cyclopropyl-8-fluoro-2-{2-hydroxymethyl-3-[1-methyl-6-oxo-5-(5-piperazin-1-yl-pyridin-2-ylamino)-1,6-dihydro-pyridin-3-yl]-phenyl}-2H-isoquinolin-1-one] |
| 58 | CN1CCN(Cc2ccc(Nc3cc(-c4cccc(N5CCc6cc(C7CC7)cc(F)c6C5=O)c4CO)cn(C)c3=O)nc2)CC1 [Example I-11, 6-Cyclopropyl-8-fluoro-2-(2-hydroxymethyl-3-{1-methyl-5-[5-(4-methyl-piperazin-1-ylmethyl)-pyridin-2-ylamino]-6-oxo-1,6-dihydro-pyridin-3-yl}-phenyl)-3,4-dihydro-2H-isoquinolin-1-one] |
| 20 | Cn1cc(-c2cccc(-n3ncc4cc(C(C)(C)C)cc(F)c4c3=O)c2CO)nc(Nc2cnn(CC(F)F)c2)c1=O [Example I-84, 6-tert-Butyl-2-(3-{6-[1-(2,2-difluoro-ethyl)-1H-pyrazol-4-ylamino]-4-methyl-5-oxo-4,5-dihydro-pyrazin-2-yl}-2-hydroxymethyl-phenyl)-8-fluoro-2H-phthalazin-1-one] |
| 20 | CCNCc1ccc(Nc2cc(-c3cccc(-n4ccc5cc(C6CC6)cc(F)c5c4=O)c3CO)cn(C)c2=O)nc1 [Example I-77, 6-Cyclopropyl-2-{3-[5-(5-ethylaminomethyl-pyridin-2-ylamino)-1-methyl-6-oxo-1,6-dihydro-pyridin-3-yl]-2-hydroxymethyl-phenyl}-8-fluoro-2H-isoquinolin-1-one] |
| 9 | CNCCOc1ccc(Nc2cc(-c3cccc(-n4ncc5cc(C(C)(C)C)cc(F)c5c4=O)c3CO)cn(C)c2=O)nc1 [Example I-88, 6-tert-Butyl-8-fluoro-2-(2-hydroxymethyl-3-{1-methyl-5-[5-(2-methylamino-ethoxy)-pyridin-2-ylamino]-6-oxo-1,6-dihydro-pyridin-3-yl}-phenyl)-2H-phthalazin-1-one] |
| 33 | Cn1cc(-c2cccc(-n3ncc4cc(C(C)(C)C)cc(F)c4c3=O)c2CO)cc(Nc2ccc3c(n2)CCNC3)c1=O [Example I-41, 6-tert-Butyl-8-fluoro-2-{2-hydroxymethyl-3-[1-methyl-6-oxo-5-(5,6,7,8-tetrahydro-[1,6]naphthyridin-2-ylamino)-1,6-dihydro-pyridin-3-yl]-phenyl}-2H-phthalazin-1-one] |
| 2260 | Cn1cc(-c2cccc(-n3ncc4cc(C(C)(C)C)cc(F)c4c3=O)c2CO)cc(Nc2ccc(N3CC[N+](C)([O-])CC3)cn2)c1=O [Example I-45, 6-tert-Butyl-8-fluoro-2-(2-hydroxymethyl-3-{1-methyl-5-[5-(4-methyl-4-oxy-piperazin-1-yl)-pyridin-2-ylamino]-6-oxo-1,6-dihydro-pyridin-3-yl}-phenyl)-2H-phthalazin-1-one] |
| 101 | Cn1cc(-c2cccc(-n3ncc4cc(C(C)(C)C)cc(F)c4c3=O)c2CO)cc(Nc2ccc(CN3CCC(N)C3)cn2)c1=O (centres unmarked) [Example I-86, 2-(3-{5-[5-(3-Amino-pyrrolidin-1-ylmethyl)-pyridin-2-ylamino]-1-methyl-6-oxo-1,6-dihydro-pyridin-3-yl}-2-hydroxymethyl-phenyl)-6-tert-butyl-8-fluoro-2H-phthalazin-1-one] |
| 258 | Cn1cc(-c2cccc(-n3ncc4cc(C(C)(C)C)cc(F)c4c3=O)c2CO)cc(Nc2ccc(C(=O)O)cn2)c1=O [Example I-34, 6-{5-[3-(6-tert-Butyl-8-fluoro-1-oxo-1H-phthalazin-2-yl)-2-hydroxymethyl-phenyl]-1-methyl-2-oxo-1,2-dihydro-pyridin-3-ylamino}-nicotinic acid] |

| SMILES | IC50 [nM] |
| --- | --- |
| Cn1cc(-c2cccc(-n3ncc4cc(C(C)(C)C)cc(F)c4c3=O)c2CO)cc(Nc2ccc(N3C[C@H]4CC[C@@H](C3)N4)cn2)c1=O [Example I-87, 6-tert-Butyl-2-(3-{5-[(1S,5R)-5-(3,8-diaza-bicyclo[3.2.1]oct-3-yl)-pyridin-2-ylamino]-1-methyl-6-oxo-1,6-dihydro-pyridin-3-yl}-2-hydroxymethyl-phenyl)-8-fluoro-2H-phthalazin-1-one] | 24 |
